In article PMC3445454, “Broad and Cross-Clade CD4^+ T-Cell Responses Elicited by a DNA Vaccine Encoding Highly Conserved and Promiscuous HIV-1 M-Group Consensus Peptides” (PLoS ONE, 2012):
Positions count from the first letter of the chain named. Where two headings read alike, the source gives them in different places.

How the values were obtained:
Assay in all cases: biochemical
Type in all cases: binding
[1] = molecular target: HLA-DR DRB1*03:01 (Homo sapiens, UniProt P01903+P01911, A100K/A102G/A103R/A169T/F55Y/I96L/K41T/L162R/M171V/P40S/Q125H/Q178H/Q39Y/R42S/S66N/T106N/T262R/W38E/Y61H)
HLA-DR DRB1*03:01, sequence (P01903 26-254 limits assumed, other chains not shown): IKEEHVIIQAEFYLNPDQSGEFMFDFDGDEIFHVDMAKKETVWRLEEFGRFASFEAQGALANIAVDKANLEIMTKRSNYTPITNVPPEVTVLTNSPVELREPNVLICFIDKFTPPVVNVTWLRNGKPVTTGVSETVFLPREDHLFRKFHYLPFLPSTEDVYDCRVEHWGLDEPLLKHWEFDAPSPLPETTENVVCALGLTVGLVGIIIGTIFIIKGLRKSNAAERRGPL

[2] = molecular target: HLA-DR DRB1*04:05 (Homo sapiens, UniProt P01903+P01911, A100R/A169T/D86S/F76Y/I96L/K127E/L162R/M171V/N62H/P40V/Q125Y/R42H/S133A/S149N/S66Y/V115G/V209L/W38E)
[3] = molecular target: HLA-DR DRB1*09:01 (Homo sapiens, UniProt P01903+P01911, A100R/A103E/D57H/D86V/F55Y/F60I/F76Y/I96F/K127E/L162R/M171V/P40D/Q125H/Q99R/R33Q/R42F/S133A/S66N/T210M/V115G/W38K/Y107V/Y59G/Y89S)
[4] = molecular target: HLA-DR DRB1*11:01 (Homo sapiens, UniProt P01903+P01911, A100R/A169T/A87E/I96F/K41T/L162R/M171V/P40S/Q125H/Q178H/Q39Y/Q99D/R42S/S66Y/T262R/V115G/W38E)
HLA-DR DRB1*11:01, sequence (P01903 26-254 limits assumed, other chains not shown): as above

[5] = molecular target: HLA-DR DRB1*13:02 (Homo sapiens, UniProt P01903+P01911, A100E/A169T/K41T/L162R/M171V/P40S/Q125H/Q178H/Q39Y/Q99D/R42S/S66N/T262R/V115G/W38E/Y61H)
HLA-DR DRB1*13:02, sequence (P01903 26-254 limits assumed, other chains not shown): as above

[6] = molecular target: HLA-DR DRB1*15:01 (Homo sapiens, UniProt P01903+P01911)
[7] = molecular target: HLA-DR DRB3*01:01 (Homo sapiens, UniProt P01903+P79483)
[8] = molecular target: HLA-DR DRB3*02:02 (Homo sapiens, UniProt P01903+P79483, A212P/D57E/F66Y/L67A/R103Q/R218S/R40L/S89Y/T80R/V86D/Y55F/Y59H)
HLA-DR DRB3*02:02, sequence (P01903 26-254 limits assumed): as the sequence (P01903 26-254 limits assumed, other chains not shown) above
HLA-DR DRB3*02:02, sequence (P79483 30-266 R40L/Y55F/D57E/Y59H/F66Y/L67A/T80R/V86D/S89Y/R103Q/A212P/R218S limits assumed): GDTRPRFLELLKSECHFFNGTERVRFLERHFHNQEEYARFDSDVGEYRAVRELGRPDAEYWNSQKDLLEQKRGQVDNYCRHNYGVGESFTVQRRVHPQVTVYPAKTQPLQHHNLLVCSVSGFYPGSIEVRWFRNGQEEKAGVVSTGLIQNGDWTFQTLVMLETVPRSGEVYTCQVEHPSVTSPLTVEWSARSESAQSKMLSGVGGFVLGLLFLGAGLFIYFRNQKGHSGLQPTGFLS

[9] = molecular target: HLA-DR DRB5*01:01 (Homo sapiens, UniProt P01903+Q30154)
[10] = molecular target: T1, HLA-DP DPA1*01:03/DPB1*02:01 (Homo sapiens, UniProt P04440+P20036, A65V/A84D/A85E/K98E)
T1 sequence (P20036 29-260): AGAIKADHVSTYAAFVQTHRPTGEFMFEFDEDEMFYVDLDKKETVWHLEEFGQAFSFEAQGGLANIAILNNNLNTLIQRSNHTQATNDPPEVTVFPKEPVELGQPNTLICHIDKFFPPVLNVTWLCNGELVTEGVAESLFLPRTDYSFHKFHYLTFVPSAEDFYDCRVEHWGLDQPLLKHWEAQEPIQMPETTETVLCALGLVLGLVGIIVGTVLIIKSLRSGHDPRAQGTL
T1 sequence (P04440 30-258 A65V/A84D/A85E/K98E): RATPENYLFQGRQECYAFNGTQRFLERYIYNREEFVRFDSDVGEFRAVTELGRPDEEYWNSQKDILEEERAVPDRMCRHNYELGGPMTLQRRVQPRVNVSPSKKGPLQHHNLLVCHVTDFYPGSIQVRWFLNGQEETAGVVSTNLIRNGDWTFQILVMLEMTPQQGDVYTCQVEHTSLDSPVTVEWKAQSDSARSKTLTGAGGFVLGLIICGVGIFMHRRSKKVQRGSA

[11] = molecular target: T2, HLA-DP DPA1*01:03/DPB1*03:01 (Homo sapiens, UniProt P04440+P20036, A65V/A84D/A85E/E86D/F38Y/G113D/G114E/G40L/I94L/L37V/M105V/M116V/P115A/R125K/T199I)
T2 sequence (P20036 29-260): T1 sequence (P20036 29-260)
T2 sequence (P04440 30-258 L37V/F38Y/G40L/A65V/A84D/A85E/E86D/I94L/M105V/G113D/G114E/P115A/M116V/R125K/T199I): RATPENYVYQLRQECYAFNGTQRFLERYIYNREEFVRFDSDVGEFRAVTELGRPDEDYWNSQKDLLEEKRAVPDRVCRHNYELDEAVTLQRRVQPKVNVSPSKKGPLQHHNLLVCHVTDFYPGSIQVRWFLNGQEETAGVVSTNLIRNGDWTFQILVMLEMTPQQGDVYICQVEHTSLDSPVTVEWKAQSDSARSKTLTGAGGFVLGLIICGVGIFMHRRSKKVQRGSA

[12] = molecular target: T3, HLA-DP DPA1*02:01/DPB1*05:01 (Homo sapiens, UniProt P04440+P20036, A65V/A84E/F191V/F64L/G113D/G114E/K142R/L158P/M116V/M62Q/P115A/Q81R/R125K/T114A/T199I/T259P/V234M); settings: read-out: Binding capacity/IC50 (nM) DPA1*02:01 DPB1*05:01
T3 sequence (P20036 29-260 A42M/M62Q/Q81R/T114A/K142R/L158P/F191V/T259P): T1 sequence (P20036 29-260) with A14M, M34Q, Q53R, T86A, K114R, L130P, F163V, T231P
T3 sequence (P04440 30-258 F64L/A65V/A84E/G113D/G114E/P115A/M116V/R125K/T199I/V234M): T2 sequence (P04440 30-258 L37V/F38Y/G40L/A65V/A84D/A85E/E86D/I94L/M105V/G113D/G114E/P115A/M116V/R125K/T199I) with V8L, Y9F, L11G, F35L, D55E, E56A, D57E, L65I, V76M, V205M

[13] = read-out: Binding capacity/IC50 (nM) DPA1*01:03 DPB1*02:01
[14] = read-out: Binding capacity/IC50 (nM) DRB5*01:01

Row | SMILES | IC50 [1] [nM] | IC50 [2] [nM] | IC50 [3] [nM] | IC50 [4] [nM] | IC50 [5] [nM] | IC50 [8] [nM] | IC50 [10, 13] [nM] | IC50 [11] [nM] | IC50 [12] [nM] | IC50 [6] [nM] | IC50 [7] [nM] | IC50 [9, 14] [nM] | further results
1 | CSCC[C@H](NC(=O)[C@H](CCCCN)NC(=O)[C@H](C)NC(=O)[C@H](Cc1ccc(O)cc1)NC(=O)[C@H](CCCCN)NC(=O)CNC(=O)[C@@H](NC(=O)[C@H](CCCCN)NC(=O)[C@H](CC(C)C)NC(=O)[C@H](CC(N)=O)NC(=O)[C@H](CCCCN)NC(=O)[C@H](Cc1ccccc1)NC(=O)[C@@H]1CCCN1C(=O)[C@H](CCC(=O)O)NC(=O)[C@@H](N)CCC(N)=O)[C@@H](C)O)C(N)=O [RT(343-357)] | 23300 | 277 | 335 | 428 | 25000 | 8610 | 115 | 6510 | 1340 |  |  |  | IC50 ([6]; read-out: Binding capacity/IC50 (nM) DRB1*15:01): 47 nM; IC50 ([7]; read-out: Binding capacity/IC50 (nM) DRB3*01:01): 5610 nM; IC50 [9]: 1.6 nM
2 | CC[C@H](C)[C@H](NC(=O)[C@H](CCCCN)NC(=O)[C@@H](NC(=O)[C@@H](NC(=O)[C@@H](N)CCC(N)=O)[C@@H](C)CC)[C@@H](C)O)C(=O)N[C@@H](CCC(N)=O)C(=O)N[C@@H](CC(N)=O)C(=O)N[C@@H](Cc1ccccc1)C(=O)N[C@@H](CCCNC(=N)N)C(=O)N[C@H](C(=O)N[C@@H](Cc1ccc(O)cc1)C(=O)N[C@@H](Cc1ccc(O)cc1)C(=O)N[C@@H](CCCNC(=N)N)C(=O)N[C@@H](CC(=O)O)C(=O)N[C@@H](CO)C(=O)N[C@@H](CCCNC(=N)N)C(=O)N[C@@H](CC(=O)O)C(=O)N1CCC[C@H]1C(=O)N[C@H](C(=O)N[C@@H](Cc1c[nH]c2ccccc12)C(N)=O)[C@@H](C)CC)C(C)C [integrase(216-235)] |  |  |  |  |  | 414 |  |  | 7.6 | 5.3 | 39 | 9.5 | IC50 ([1]; read-out: Binding capacity/IC50 (nM) DRB1*03:01): 11 nM; IC50 ([2]; read-out: Binding capacity/IC50 (nM) DRB1*04:05): 179 nM; IC50 ([3]; read-out: Binding capacity/IC50 (nM) DRB1*09:01): 542 nM; IC50 ([4]; read-out: Binding capacity/IC50 (nM) DRB1*11:01): 288 nM; IC50 ([5]; read-out: Binding capacity/IC50 (nM) DRB1*13:02): 1930 nM; IC50 [10]: 311 nM; IC50 ([11]; read-out: Binding capacity/IC50 (nM) DPA1*01:03 DPB1*03:01): 83 nM
3 | CC[C@H](C)[C@H](NC(=O)[C@H](C)NC(=O)[C@@H](N)CCC(=O)O)C(=O)N[C@H](C(=O)N[C@@H](CCCNC(=N)N)C(=O)N[C@H](C(=O)N[C@@H](CC(C)C)C(=O)N[C@@H](CCC(N)=O)C(=O)N[C@@H](CCC(N)=O)C(=O)N[C@@H](CC(C)C)C(=O)N[C@@H](CC(C)C)C(=O)N[C@@H](Cc1ccccc1)C(=O)N[C@H](C(=O)N[C@@H](Cc1c[nH]cn1)C(=O)N[C@@H](Cc1ccccc1)C(=O)N[C@@H](CCCNC(=N)N)C(=O)N[C@H](C(=O)NCC(=O)N[C@@H](CS)C(=O)N[C@@H](CCC(N)=O)C(=O)N[C@@H](Cc1c[nH]cn1)C(=O)N[C@@H](CO)C(=O)N[C@@H](CCCNC(=N)N)C(N)=O)[C@@H](C)CC)[C@@H](C)CC)[C@@H](C)CC)[C@@H](C)CC [vpr(58-80)] | 14400 | 294 | 477 | 724 | 5010 |  | 717 | 348 | 2990 | 149 | 11600 | 443 | IC50 ([8]; read-out: Binding capacity/IC50 (nM) DRB3*02:02): 4090 nM
